Results taken from DBAASP.
Values after ≈ are worked out from the molar mass of the structure shown. One block for each compound: values may come before it.

Columns and labels:
Test in all cases: ≥ marks a high value that may be exact or a test limit, other limits are often not marked, values filed in µg/mL are converted to µM
[1] = tested on: Staphylococcus aureus 5118
[2] = tested on: Staphylococcus aureus ATCC 9144
[3] = tested on: Staphylococcus aureus E4049
[4] = tested on: Penicillium expansum EPS 26
[5] = tested on: Fusarium oxysporum f. sp. lycopersici ATCC 201829
[6] = tested on: Erwinia amylovora PMV 6076
[7] = tested on: Pseudomonas syringae EPS 94
[8] = tested on: Aspergillus niger CECT 2694
[9] = tested on: Xanthomonas vesicatoria 2133-2
[10] = tested on: Rhizopus stolonifer CECT 2344
[11] = tested on: Escherichia coli ATCC 25922
[12] = tested on: Staphylococcus aureus LAC
Escherichia coli W160-37 = tested on: Escherichia coli W160-37
[13] = tested on: Staphylococcus aureus 8530
[14] = tested on: Pseudomonas putida NCIM 2102
Bacillus subtilis = tested on: Bacillus subtilis
[15] = tested on: Pseudomonas aeruginosa 1570
[16] = tested on: Pseudomonas aeruginosa 5167
[17] = tested on: Bacillus subtilis KCTC 1998
[18] = tested on: Pseudomonas aeruginosa 4891
[19] = tested on: Staphylococcus aureus CCARM 3090
[20] = tested on: Listeria monocytogenes KCTC 3710
[21] = tested on: Escherichia coli CCARM 1229
[22] = tested on: Trichosporon beigelii KCTC 7707
[23] = tested on: Salmonella typhimurium KCTC 1926
[24] = tested on: Staphylococcus aureus ATCC 25923
[25] = tested on: Pseudomonas aeruginosa 4007
[26] = tested on: Escherichia coli CCARM 1238
[27] = tested on: Staphylococcus aureus CCARM 3518
[28] = tested on: Pseudomonas aeruginosa ATCC 27853
[29] = tested on: Candida albicans KCTC 7270
Edwardsiella tarda = tested on: Edwardsiella tarda
[30] = tested on: Streptococcus iniae FP5228
[31] = tested on: Vibrio ordalii KCCM 41669
[32] = tested on: Vibrio harveyi ATCC 14126
Escherichia coli JM109 = tested on: Escherichia coli JM109
[33] = tested on: Vibrio alginolyticus KCCM 2928
[34] = tested on: Vibrio vulnificus KCTC 2982
[35] = tested on: Vibrio campbellii KCCM 40684
[36] = tested on: Aeromonas salmonicida RFAS1
[37] = tested on: Edwardsiella tarda FP4130

- MIC [1]: 3.78 µM (≈ 8 µg/mL)
- MIC [2]: ≥ 125 µM
- MIC [3]: 15.6 µM (≈ 33 µg/mL)
Compound: CSCC[C@H](NC(=O)[C@@H](NC(=O)[C@H](Cc1ccccc1)NC(=O)[C@H](CC(C)C)NC(=O)[C@H](CC(C)C)NC(=O)[C@@H](NC(=O)[C@H](C)NC(=O)[C@@H](N)CC(C)C)[C@@H](C)O)[C@@H](C)O)C(=O)N[C@@H](CS)C(=O)N[C@@H](CC(C)C)C(=O)N[C@@H](CC(N)=O)C(=O)N[C@@H](Cc1ccccc1)C(=O)N[C@@H](CS)C(=O)NCC(=O)N[C@H](C(=O)N[C@@H](CC(C)C)C(=O)N[C@@H](C)C(=O)NCC(=O)N[C@@H](CC(=O)O)C(=O)N[C@@H](CC(=O)O)C(=O)O)C(C)C [LATLLFTMCLNFCGVLAGDD]

- MIC [4]: 22.4 µM (≈ 33.1 µg/mL)
- MIC [5]: 0.849 µM (≈ 1.25 µg/mL)
- MIC [6]: 3.16 µM (≈ 4.68 µg/mL)
- MIC [7]: 3.16 µM (≈ 4.68 µg/mL)
- MIC [8]: 17.3 µM (≈ 25.6 µg/mL)
- MIC [9]: 3.16 µM (≈ 4.68 µg/mL)
- MIC [10]: ≥ 35.4 µM
Compound: CC[C@H](C)[C@H](NC(=O)[C@H](CCCCN)NC(=O)[C@H](CCCCN)NC(=O)[C@H](Cc1ccccc1)NC(=O)[C@H](CC(C)C)NC(=O)[C@H](CCCCN)NC(=O)[C@@H](N)Cc1c[nH]c2ccccc12)C(=O)N[C@@H](CC(C)C)C(=O)N[C@@H](CCCCN)C(=O)N[C@@H](Cc1ccc(O)cc1)C(=O)N[C@@H](CC(C)C)C(N)=O [WKLFKKILKYL]

- MIC [11]: > 138 µM
- MIC [12]: ≥ 138 µM
Compound: C[C@H](N)C(=O)N[C@@H](C)C(=O)N[C@@H](C)C(=O)N[C@@H](C)C(=O)N[C@@H](CCCN=C(N)N)C(=O)N[C@@H](CCCN=C(N)N)C(=O)N[C@@H](CCCN=C(N)N)C(=O)N[C@@H](CCCN=C(N)N)C(=O)O [AAAARRRR]

- MIC (Escherichia coli W160-37): 6.81 µM (≈ 12.2 µg/mL)
- MIC [13]: 3.93 µM (≈ 7.07 µg/mL)
- MIC [14]: 30.5 µM (≈ 54.7 µg/mL)
- MIC (Bacillus subtilis): 1.57 µM (≈ 2.83 µg/mL)
Compound: CC[C@H](C)[C@H](NC(=O)[C@H](CC(C)C)NC(=O)[C@H](CCCCN)NC(=O)[C@H](CCCCN)NC(=O)[C@H](CC(C)C)NC(=O)CN)C(=O)N[C@@H](CO)C(=O)N[C@@H](Cc1c[nH]c2ccccc12)C(=O)N[C@H](C(=O)N[C@@H](CCCCN)C(=O)N[C@@H](CCCN=C(N)N)C(=O)N[C@@H](C)C(=O)N[C@@H](C)C(=O)N[C@@H](CCC(N)=O)C(=O)N[C@@H](CCC(N)=O)C(=O)NCC(N)=O)[C@@H](C)CC [GLKKLISWIKRAAQQG]

- MIC [15]: 10.5 µM (≈ 11.3 µg/mL)
- MIC [16]: ≥ 119 µM
Compound: CC(C)C[C@H](NC(=O)[C@H](CC(C)C)NC(=O)[C@H](CCCCN)NC(=O)[C@H](CCCCN)NC(=O)[C@H](CC(C)C)NC(=O)[C@H](C)NC(=O)[C@H](CCCCN)NC(=O)[C@H](CC(C)C)NC(=O)[C@@H](N)Cc1ccccc1)C(N)=O [FLKALKKLL]

- MIC [17]: ≥ 32 µM
- MIC [11]: 16 µM (≈ 47 µg/mL)
- MIC [18]: ≥ 64 µM
- MIC [19]: ≥ 32 µM
- MIC [20]: ≥ 32 µM
- MIC [21]: ≥ 32 µM
- MIC [22]: ≥ 32 µM
- MIC [23]: 16 µM (≈ 47 µg/mL)
- MIC [24]: 32 µM (≈ 93.9 µg/mL)
- MIC [25]: ≥ 64 µM
- MIC [26]: ≥ 32 µM
- MIC [27]: ≥ 32 µM
- MIC [28]: 16 µM (≈ 47 µg/mL)
- MIC [29]: ≥ 32 µM
Compound: CC[C@H](C)[C@H](NC(=O)CNC(=O)[C@H](CCC(N)=O)NC(=O)[C@H](Cc1ccccc1)NC(=O)[C@@H](NC(=O)[C@H](CCCCN)NC(=O)[C@H](CCCCN)NC(=O)[C@H](CC(C)C)NC(=O)[C@H](C)NC(=O)[C@H](CC(N)=O)NC(=O)[C@H](CC(C)C)NC(=O)[C@@H](N)Cc1c[nH]c2ccccc12)C(C)C)C(=O)N[C@@H](Cc1cnc[nH]1)C(=O)N[C@@H](CCC(=O)O)C(=O)N[C@@H](C)C(=O)N[C@H](C(=O)N[C@@H](CCCCN)C(=O)N[C@@H](CC(C)C)C(=O)N[C@H](C(=O)N[C@@H](Cc1c[nH]c2ccccc12)C(=O)N[C@@H](CC(N)=O)C(=O)N[C@@H](Cc1c[nH]c2ccccc12)C(=O)N[C@H](C(=O)N[C@@H](CCC(N)=O)C(N)=O)C(C)C)[C@@H](C)CC)[C@@H](C)CC [WLNALKKVFQGIHEAIKLIWNWVQ]

- MIC (Edwardsiella tarda): 11 µM (≈ 25.4 µg/mL)
- MIC [30]: 1.9 µM (≈ 4.38 µg/mL)
- MIC [31]: ≥ 1000 µM
- MIC [32]: 0.9 µM (≈ 2.08 µg/mL)
- MIC (Escherichia coli JM109): 2.72 µM (≈ 6.28 µg/mL)
- MIC [33]: 0.9 µM (≈ 2.08 µg/mL)
- MIC [34]: 2.72 µM (≈ 6.28 µg/mL)
- MIC [35]: 0.9 µM (≈ 2.08 µg/mL)
Compound: CC[C@H](C)[C@H](NC(=O)[C@H](CC(C)C)NC(=O)[C@H](CCCN=C(N)N)NC(=O)[C@H](Cc1cnc[nH]1)NC(=O)[C@@H](NC(=O)[C@@H](NC(=O)[C@H](CCCCN)NC(=O)CNC(=O)[C@@H](NC(=O)CNC(=O)[C@@H](NC(=O)[C@H](CC(C)C)NC(=O)CNC(=O)[C@H](CC(N)=O)NC(=O)[C@H](Cc1ccccc1)NC(=O)[C@@H](NC(=O)[C@H](Cc1cnc[nH]1)NC(=O)[C@H](Cc1cnc[nH]1)NC(=O)[C@H](Cc1ccccc1)NC(=O)[C@@H](N)Cc1ccccc1)[C@@H](C)CC)C(C)C)C(C)C)[C@@H](C)O)[C@@H](C)CC)C(=O)O [FFHHIFNGLVGVGKTIHRLI]

- MIC [36]: 7.8 µM (≈ 20.4 µg/mL)
- MIC [37]: 15.6 µM (≈ 40.7 µg/mL)
- MIC [30]: 7.8 µM (≈ 20.4 µg/mL)
- MIC [31]: 15.6 µM (≈ 40.7 µg/mL)
- MIC [32]: 0.5 µM (≈ 1.31 µg/mL)
- MIC [33]: 0.5 µM (≈ 1.31 µg/mL)
Compound: CC(C)C[C@H](NC(=O)[C@H](CCCN=C(N)N)NC(=O)CNC(=O)[C@H](Cc1ccccc1)NC(=O)[C@@H](N)Cc1ccccc1)C(=O)N[C@@H](CCCCN)C(=O)N[C@@H](C)C(=O)N[C@H](C(=O)N[C@@H](Cc1ccccc1)C(=O)N[C@@H](CCCN=C(N)N)C(=O)NCC(=O)N[C@@H](C)C(=O)N[C@@H](CCCN=C(N)N)C(=O)N[C@@H](CCC(N)=O)C(=O)NCC(=O)N[C@@H](Cc1c[nH]c2ccccc12)C(=O)N[C@@H](CCCCN)C(=O)N[C@@H](CCC(=O)O)C(=O)N[C@@H](Cc1cnc[nH]1)C(=O)N[C@@H](CCCN=C(N)N)C(=O)N[C@@H](Cc1ccc(O)cc1)C(=O)O)C(C)C [FFGRLKAVFRGARQGWKEHRY]
